Test results from US11338004B2, “Composition for preventing or treating cranial nerve disease comprising fomes fomentarius extract, fraction thereof, or compound isolated therefrom as active ingredient” (priority 2015, dated 2022).

Assays:
[1] = biological target: xanthine oxidase (Homo sapiens, UniProt P47989); test: Xanthine oxidase inhibitory activity; assay type: biochemical
Procedure: 0.2 ml of the substrate solution in which 2 mM xanthine was dissolved was added to 0.1 ml of a sample solution and 0.6 ml of 0.1 M potassium phosphate buffer at pH 7.5, and 0.1 ml of 0.2 unit/ml xanthine oxidase was added thereto, followed by reaction at 37° C. for 5 minutes. Then, 1 ml of 1N HCl was added to terminate the reaction, and then the absorbance of the uric acid produced in the reaction solution was measured at 292 nm. The inhibitory activity of xanthine oxidase was shown by the absorbance reduction rate of the addition group and the non-addition group of the sample solution.
Xanthine oxidase acts as a rate-limiting enzyme in the terminal oxidation of all purines and is an enzyme that acts as a source of oxidizing agents such as superoxide radicals and hydrogen peroxide. The superoxide anion inhibition by xanthine/xanthine oxidase enzymes is shown by superoxide anion scavenging activity and xanthine oxidase inhibition and has biologically important meaning through inhibition of gout and formation of free radicals. The superoxide radical scavenging effects of 10, 20, 40, 80, 160, 320, and 640 μg mL-1 of each fraction extract of the Fomes fomentarius were compared using butylated hydroxy anisole (BHA) as a positive control group.
The superoxide radical scavenging effects of 10, 20, 40, 80, 160, 320, and 640 μg mL-1 of the Acer tegmentosum maxim extract were compared using butylated hydroxy anisole (BHA) as a positive control group.
The superoxide radical scavenging effects of 10, 20, 40, 80, 160, 320, and 640 μg mL-1 of the berchemia berchemiaefolia extract were compared using butylated hydroxy anisole (BHA) as a positive control group.
The superoxide radical scavenging effects of 10, 20, 40, 80, 160, 320, and 640 μg mL-1 of the Lithospermum erythrorhizon extract were compared using butylated hydroxy anisole (BHA) as a positive control group.

[2] = biological target: AChE (Homo sapiens, UniProt P22303); test: Acetylcholinesterase inhibitory activity; assay type: biochemical; settings: read-out: acetylcholinesterase inhibitory activity (%)
Chain of AChE (P22303 32-614): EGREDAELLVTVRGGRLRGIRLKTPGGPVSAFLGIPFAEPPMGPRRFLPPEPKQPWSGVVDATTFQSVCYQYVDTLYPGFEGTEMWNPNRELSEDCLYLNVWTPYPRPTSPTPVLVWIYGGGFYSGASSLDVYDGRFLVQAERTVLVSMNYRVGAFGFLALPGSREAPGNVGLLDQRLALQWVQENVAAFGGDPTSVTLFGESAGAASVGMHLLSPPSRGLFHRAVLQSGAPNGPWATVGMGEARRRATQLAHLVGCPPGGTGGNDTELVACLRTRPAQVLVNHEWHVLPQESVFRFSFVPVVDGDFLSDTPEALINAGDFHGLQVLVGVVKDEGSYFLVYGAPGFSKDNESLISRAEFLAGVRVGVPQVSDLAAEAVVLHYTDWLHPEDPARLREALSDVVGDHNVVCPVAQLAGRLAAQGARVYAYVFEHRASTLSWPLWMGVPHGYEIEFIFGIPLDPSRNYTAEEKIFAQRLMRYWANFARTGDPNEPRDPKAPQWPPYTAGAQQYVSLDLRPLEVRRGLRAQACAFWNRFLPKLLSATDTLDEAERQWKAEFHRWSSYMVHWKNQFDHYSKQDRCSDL
Procedure: AChE and acetylthocholine iodine (ATC) were dissolved in 100 mM phosphate buffer (pH 8.0) to prepare 0.25 U/mL and 75 mM, respectively. […] 2.8 mL of phosphate buffer (100 mM, pH 8.0), 30 μL of AChE (0.25 U/mL), and 100 μL of DTNB were added to 30 μL of the extract, and were mixed. Then, the mixture was preincubated at 37° C. for 10 minutes. Then, 30 μL of substrate ATC was added thereto and was reacted at 37° C. for 3 minutes, and then the absorbance was measured at 412 nm. As a control group, 30 μL of 100 mM phosphate buffer (pH 8.0) was added instead of the extract, and then was measured.

[3] = DPPH radical scavenging activity
Procedure: The present experiment used the property that the hydrazyl of diphenylpicrylhydrazyl (DPPH) used in the present experiment has a property of easily accepting a hydrogen atom since the nitrogen atom is unstable, so as to react with the antioxidant material to accept the hydrogen atom to lose its own orthochromatism.
First, in order to measure DPPH radical scavenging activity of the Fomes fomentarius fraction, 1.9 ml of 0.2 mM DPPH solution (99.5% ethanol) was added to 0.1 ml of solutions (control: 99.5% ethanol) in which the concentrated dried material of each Fomes fomentarius substance was prepared at 7 concentrations of 10, 20, 40, 80, 160, 320 and 640 μg/ml, respectively. The mixture was shaken with a vortex mixer for 10 seconds and then incubated at 37° C. for 30 minutes. Then, the absorbance was measured at 517 nm using a spectrophotometer.
As a positive control drug, L-ascorbic acid was prepared at […] of 10, 20, 40, 80, 160, 320, and 640 μg/mL (99.5% ethanol).
The present inventors measured DPPH radicals scavenging activity in the same manner as in Example <2-2> above using nonadecanone (2-nonadecanone) and docosenol (cis-13-Docosenol) compounds found in the above and Fomes fomentarius CHCl3 fraction of the present disclosure.
First, in order to measure DPPH radical scavenging activity of the Acer tegmentosum maxim extract, 1.9 ml of 0.2 mM DPPH solution (99.5% ethanol) was added to 0.1 ml of solutions (control: 99.5% ethanol) in which the concentrated dried material of each Acer tegmentosum maxim material was prepared at 7 concentrations of 10, 20, 40, 80, 160, 320 and 640 μg/ml, respectively. The mixture was shaken with a vortex mixer for 10 seconds and then incubated at 37° C. for 30 minutes. Then, the absorbance was measured at 517 nm using a spectrophotometer.
As a positive control, L-ascorbic acid was prepared at […] of 10, 20, 40, 80, 160, 320, and 640 μg/mL (99.5% ethanol).
First, in order to measure DPPH radical scavenging activity of the berchemia berchemiaefolia extract, 1.9 ml of 0.2 mM DPPH solution (99.5% ethanol) was added to 0.1 ml of solutions (control: 99.5% ethanol) in which the concentrated dried material of each berchemia berchemiaefolia material was prepared at 7 concentrations of 10, 20, 40, 80, 160, 320 and 640 μg/ml, respectively. The mixture was shaken with a vortex mixer for 10 seconds and then incubated at 37° C. for 30 minutes. Then, the absorbance was measured at 517 nm using a spectrophotometer.
First, in order to measure DPPH radical scavenging activity of the Lithospermum erythrorhizon extract, 1.9 ml of 0.2 mM DPPH solution (99.5% ethanol) was added to 0.1 ml of solutions (control: 99.5% ethanol) in which the concentrated dried material of each Lithospermum erythrorhizon material was prepared at 7 concentrations of 10, 20, 40, 80, 160, 320 and 640 μg/ml, respectively. The mixture was shaken with a vortex mixer for 10 seconds and then incubated at 37° C. for 30 minutes. Then, the absorbance was measured at 517 nm using a spectrophotometer.

Chain of xanthine oxidase (P47989 whole entry, species assumed): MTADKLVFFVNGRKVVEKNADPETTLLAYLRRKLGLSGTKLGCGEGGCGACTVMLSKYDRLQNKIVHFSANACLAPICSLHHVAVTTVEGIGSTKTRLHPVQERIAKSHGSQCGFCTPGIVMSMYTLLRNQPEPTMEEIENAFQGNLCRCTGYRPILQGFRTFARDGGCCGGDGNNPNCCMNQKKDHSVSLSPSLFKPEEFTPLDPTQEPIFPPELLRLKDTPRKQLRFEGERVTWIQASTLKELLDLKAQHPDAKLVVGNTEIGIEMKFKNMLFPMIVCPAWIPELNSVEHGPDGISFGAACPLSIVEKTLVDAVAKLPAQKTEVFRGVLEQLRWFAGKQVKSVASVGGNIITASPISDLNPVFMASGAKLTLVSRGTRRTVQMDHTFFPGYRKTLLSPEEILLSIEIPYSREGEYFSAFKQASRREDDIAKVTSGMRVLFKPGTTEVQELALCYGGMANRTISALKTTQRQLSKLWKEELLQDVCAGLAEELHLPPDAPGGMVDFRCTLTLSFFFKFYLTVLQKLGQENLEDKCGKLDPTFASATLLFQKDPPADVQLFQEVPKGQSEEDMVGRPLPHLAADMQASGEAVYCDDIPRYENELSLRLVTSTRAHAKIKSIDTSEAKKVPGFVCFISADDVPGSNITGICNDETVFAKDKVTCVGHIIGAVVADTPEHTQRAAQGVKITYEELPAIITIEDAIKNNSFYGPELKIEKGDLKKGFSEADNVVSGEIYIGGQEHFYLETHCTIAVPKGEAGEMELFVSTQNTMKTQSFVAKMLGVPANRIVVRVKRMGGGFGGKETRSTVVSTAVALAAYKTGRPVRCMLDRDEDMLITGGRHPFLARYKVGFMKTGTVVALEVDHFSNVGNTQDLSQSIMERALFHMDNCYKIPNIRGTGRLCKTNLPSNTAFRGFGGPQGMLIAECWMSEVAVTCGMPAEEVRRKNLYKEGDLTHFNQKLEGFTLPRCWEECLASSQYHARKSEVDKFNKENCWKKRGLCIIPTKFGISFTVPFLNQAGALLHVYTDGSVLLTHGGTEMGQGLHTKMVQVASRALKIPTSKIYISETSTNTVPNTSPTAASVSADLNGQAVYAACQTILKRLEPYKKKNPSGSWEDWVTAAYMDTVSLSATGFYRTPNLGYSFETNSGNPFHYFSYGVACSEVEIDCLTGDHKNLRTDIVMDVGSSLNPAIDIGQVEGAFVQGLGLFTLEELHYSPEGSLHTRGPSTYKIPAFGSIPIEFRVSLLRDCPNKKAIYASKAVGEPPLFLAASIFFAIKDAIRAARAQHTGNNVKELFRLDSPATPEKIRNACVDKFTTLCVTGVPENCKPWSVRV

COc1ccc(O)c(C(C)(C)C)c1 [BHA, butylated hydroxyanisole]
xanthine oxidase inhibitory activity ([1]; 10 μg/mL): 24.1±0.1
xanthine oxidase inhibitory activity ([1]; 20 μg/mL): 35.8±0.3
xanthine oxidase inhibitory activity ([1]; 40 μg/mL): 58.1±0.4
xanthine oxidase inhibitory activity ([1]; 80 μg/mL): 68.1±0.5
xanthine oxidase inhibitory activity ([1]; 160 μg/mL): 76.1±0.8
xanthine oxidase inhibitory activity ([1]; 320 μg/mL): 83.5±1.2
xanthine oxidase inhibitory activity ([1]; 640 μg/mL): 85.6±1.3
xanthine oxidase inhibition of the positive control group ([1]; concentration not stated (Example 2-18)): 94.1%

O=C1O[C@H]([C@@H](O)CO)C(O)=C1O [ascorbic acid, L-ascorbic acid, reference compound]
inhibition at 10 µg/mL [2]: 35.8 ± 3.5%
inhibition at 20 µg/mL [2]: 45.1 ± 4.5%
inhibition at 40 µg/mL [2]: 51.8 ± 6.5%
inhibition at 80 µg/mL [2]: 61.1 ± 4.1%
inhibition at 160 µg/mL [2]: 61.9 ± 3.8%
inhibition at 320 µg/mL [2]: 76.1 ± 4.6%
inhibition at 640 µg/mL [2]: 87.9 ± 5.6%
DPPH radical scavenging activity (% antioxidant activity) ([3]; 10 μg/mL): 70.5±4.5% and about 70.5%
DPPH radical scavenging activity (% antioxidant activity) ([3]; 20 μg/mL): 71.8±12.5% and about 71.8%
DPPH radical scavenging activity (% antioxidant activity) ([3]; 40 μg/mL): 74.1±8.2% and about 74.1%
DPPH radical scavenging activity (% antioxidant activity) ([3]; 80 μg/mL): 77.8±7.6% and about 77.8%
DPPH radical scavenging activity (% antioxidant activity) ([3]; 160 μg/mL): 80.6±4.5% and about 80.6%
DPPH radical scavenging activity (% antioxidant activity) ([3]; 320 μg/mL): 83.2±9.6% and about 83.2%
DPPH radical scavenging activity (% antioxidant activity) ([3]; 640 μg/mL): 84.5±7.7% and about 84.5%
inhibition at 10 µg/mL ([1]; 10 μg/mL): 24.1 ± 1.8%
inhibition at 20 µg/mL ([1]; 20 μg/mL): 35.1 ± 2.5%
inhibition at 40 µg/mL ([1]; 40 μg/mL): 58.1 ± 0.9%
inhibition at 80 µg/mL ([1]; 80 μg/mL): 68.1 ± 1.1%
inhibition at 160 µg/mL ([1]; 160 μg/mL): 76.1 ± 2.5%
inhibition at 320 µg/mL ([1]; 320 μg/mL): 83.5 ± 3.5%
inhibition at 640 µg/mL ([1]; 640 μg/mL): 85.6 ± 2.8%
